Assays:
Test in all cases: relative viability (nuclei count vs DMSO), 5 days (fraction); higher = more cells survive
Kobe2602 = compound: C1=CC(=CC=C1NC(=S)NNC2=C(C=C(C=C2[N+](=O)[O-])C(F)(F)F)[N+](=O)[O-])F [Kobe2602]
Method in brief: (§1)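 Viability was defined as treated-well nuclei divided by vehicle-well nuclei, with the median taken over replicate plates. Cells from lung cancer lines sat overnight at 37 °C in 1536-well plates, received five √10-spaced library-drug doses by pinning on vehicle-anchored plates, and grew 5 days without medium change before one-step fixation, permeabilisation and Hoechst staining, 4× imaging and MetaXpress nuclear counts. Only plates with control CV under 25% and at least one doubling were kept.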

Cabozantinib = compound: COc1cc2nccc(Oc3ccc(NC(=O)C4(C(=O)Nc5ccc(F)cc5)CC4)cc3)c2cc1OC [Cabozantinib]
Method in brief: as §1

Zosuquidar = compound: O[C@@H](COc1cccc2ncccc12)CN1CCN([C@@H]2c3ccccc3[C@@H]3[C@H](c4ccccc42)C3(F)F)CC1 [Zosuquidar]
Method in brief: as §1

Kobe2602 + Alpelisib = compound: C1=CC(=CC=C1NC(=S)NNC2=C(C=C(C=C2[N+](=O)[O-])C(F)(F)F)[N+](=O)[O-])F [Kobe2602] + Cc1nc(NC(=O)N2CCC[C@H]2C(N)=O)sc1-c1ccnc(C(C)(C)C(F)(F)F)c1 [Alpelisib] (partner 2 µM)
Method in brief: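 Values are medians from duplicate plates. Each reflects relative viability, defined as the nuclei count of treated wells over that of vehicle wells. Lung cancer cell lines in 1536-well plates were pin-tool dosed one day after seeding with one drug alone or with a fixed anchor-drug dose plus five library-drug doses (not always all listed) in √10 steps, then fixed, stained and imaged at 4× after 5 days.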

Cell Line | relative viability (Kobe2602; 0.2 µM) | relative viability (Kobe2602; 0.6325 µM) | relative viability (Kobe2602; 2 µM) | relative viability (Kobe2602; 6.325 µM) | relative viability (Kobe2602; 20 µM) | relative viability (Cabozantinib; 0.02 µM) | relative viability (Cabozantinib; 0.06325 µM) | relative viability (Cabozantinib; 0.2 µM) | relative viability (Cabozantinib; 0.6325 µM) | relative viability (Cabozantinib; 2 µM) | relative viability (Zosuquidar; 0.01 µM) | relative viability (Zosuquidar; 0.03162 µM) | relative viability (Zosuquidar; 0.1 µM) | relative viability (Zosuquidar; 0.3162 µM) | relative viability (Zosuquidar; 1 µM) | relative viability (Kobe2602 + Alpelisib; first compound 0.2 µM) | relative viability (Kobe2602 + Alpelisib; first compound 0.6325 µM) | relative viability (Kobe2602 + Alpelisib; first compound 2 µM) | relative viability (Kobe2602 + Alpelisib; first compound 6.325 µM) | relative viability (Kobe2602 + Alpelisib; first compound 20 µM)
HOP-62 | 0.983 | 1.07 | 0.952 | 1.04 | 1.01 | 1.1 | 1.1 | 1.16 | 1.08 | 1.09 | 1.03 | 1.05 | 1.02 | 1.05 | 0.975 | 1.05 | 0.846 | 0.934 | 0.809 | 1.25
Calu-6 | 0.992 | 1.05 | 1.01 | 1.01 | 0.929 | 1.14 | 1.08 | 0.977 | 0.987 | 0.954 | 0.993 | 0.989 | 1.11 | 1.04 | 1.06 | 0.883 | 1.04 | 0.96 | 1 | 0.987
NCI-H460 | 1.03 | 0.955 | 0.986 | 1.04 | 0.963 | 1.05 | 1.06 | 1.05 | 0.976 | 1.03 | 0.993 | 0.964 | 0.969 | 1.02 | 0.974 | 0.513 | 0.55 | 0.507 | 0.499 | 0.444
NCI-H1793 | 0.862 | 0.889 | 0.853 | 0.86 | 1.04 | 0.846 | 0.992 | 0.59 | 0.832 | 0.776 | 0.902 | 0.754 |  | 1.15 | 0.892 | 0.629 | 0.615 | 0.589 | 0.684 | 0.847
NCI-H727 | 1.07 | 0.952 | 0.878 | 0.85 | 0.938 | 0.852 | 1.05 | 0.808 | 0.912 | 0.961 | 0.971 | 1.06 | 0.8 | 1.13 | 1.01 | 0.625 | 0.518 | 0.614 | 0.571 | 0.728
NCI-H838 | 0.932 | 1.03 | 0.937 | 0.955 | 0.96 | 0.93 | 1 | 0.966 | 0.891 | 0.854 | 0.972 | 0.836 | 0.9 | 1.04 | 1.01 | 0.909 | 1.01 | 0.915 | 1 | 0.976
NCI-H1734 | 1.05 | 1.05 | 0.973 | 0.987 | 1.1 | 0.92 | 1.01 | 1.11 | 1.02 | 0.938 | 1 | 1 | 0.928 | 1.08 | 0.938 | 0.71 | 0.816 | 0.665 | 0.726 | 0.784
EKVX | 0.968 | 1.02 | 0.922 | 0.976 | 1.09 | 0.919 | 1.12 | 0.915 | 1.01 | 1.1 | 0.952 | 0.961 | 0.737 | 1.02 | 0.97 | 0.886 | 0.852 | 0.826 | 0.913 | 0.925
EBC-1 | 0.956 | 1.05 | 0.957 | 0.93 | 0.984 | 1.04 | 0.901 | 0.227 | 0.174 | 0.165 | 1.05 | 1.01 | 0.956 | 1.11 | 0.929 | 0.876 | 0.963 | 0.958 | 0.839 | 0.894
NCI-H647 | 0.938 | 1.09 | 0.936 | 0.91 | 0.948 | 0.994 | 1.14 | 0.986 | 0.92 | 0.881 | 0.908 | 0.951 | 0.918 | 1.13 | 0.884 | 1.23 | 1.37 | 1.11 | 1.21 | 1.12
LOU-NH91 | 0.993 | 1.05 | 0.912 | 0.999 | 1.04 | 0.919 | 1.13 | 0.885 | 0.926 | 0.975 | 0.888 | 0.953 | 0.775 | 1.01 | 0.922 | 0.767 | 0.752 | 0.701 | 0.722 | 0.778
COR-L23 | 0.95 | 1.06 | 1.09 | 1.09 | 0.95 | 1.11 | 1.04 | 0.993 | 1 | 1.07 | 1.06 | 1.11 | 1.02 | 1.1 | 1.06 | 0.752 | 0.827 | 0.809 | 0.885 | 0.83
NCI-H1437 | 0.958 | 0.978 | 1 | 0.983 | 0.96 | 1.05 | 1.08 | 0.946 | 0.998 | 0.975 | 0.976 | 0.979 | 0.91 | 1.09 | 0.942 | 0.938 | 1.01 | 0.914 | 0.956 | 0.938
NCI-H1703 | 0.831 | 1.08 | 0.83 | 0.898 | 0.727 | 0.57 | 0.662 | 0.325 | 0.262 | 0.233 | 1.07 | 1.14 | 0.993 | 1.12 | 1.01 | 0.313 | 0.347 | 0.333 | 0.392 | 0.306
EPLC-272H | 0.98 | 1.16 | 0.952 | 1.02 | 1.04 | 0.921 | 1.17 | 0.821 | 0.872 | 0.856 | 0.963 | 0.995 | 0.781 | 1.06 | 0.892 | 0.883 | 1.08 | 0.908 | 0.885 | 0.925
NCI-H1666 | 1.06 | 1.01 | 0.963 | 1.03 | 1 | 1.01 | 1.08 | 1.02 | 1.03 | 1.06 | 0.997 | 1.08 | 0.962 | 1.08 | 0.945 | 0.97 | 0.925 |  | 0.893 | 0.768

Source: the supplement of paper PMC10307832
